Data from patent US6645918B1, “N-([1,2,4]triazoloazinyl)thiophenesulfonamide compounds and their use as herbicides” (Dow AgroSciences LLC, priority 2000, dated 2003).

Experiments:
Type in all cases: in vivo
[1] = tested on: wild poinsettia (Euphorbia heterophylla); assay: Preemergence herbicidal activity, wild poinsettia; settings: 35 g/Ha, soil spray, visual after 3 weeks; 0 no injury, 100 complete kill or no germination
Method: (§1) The soil matrix was contained in plastic pots with a surface area of 161 square centimeters. When required to ensure good germination and healthy plants, a fungicide treatment and/or other chemical or physical treatment was applied. A weighed amount, determined by the highest rate to be tested, of each test compound was placed in a 20 mL glass vial and was dissolved in 8 mL of a 97:3 v/v (volume/volume) mixture of acetone and dimethyl sulfoxide to obtain concentrated stock solutions. […] The stock solutions obtained were diluted with a 99.9:0.1 mixture of water and Tween® 155 surfactant (ethoxylated sorbitan fatty acid ester) to obtain application solutions of known concentration. The solutions containing the highest concentration to be tested were prepared by diluting 4 mL aliquots of the stock solution with 8.5 mL of the mixture and lower concentrations were prepared by dilution of appropriate smaller portions of the stock solution. A 2.5 mL aliquot of each solution of known concentration was sprayed evenly onto the soil of each seeded pot using a Cornwall 5.0 mL glass syringe fitted with a TeeJet TN-3 hollow cone nozzle to obtain thorough coverage of the soil in each pot. Control pots were sprayed in the same manner with the aqueous mixture. A highest application rate of 4.48 kg/ha is achieved when 50 mg of test compound is employed. The treated pots and control pots were placed in a greenhouse with an approximately 15 hr photoperiod which was maintained at about 23-29° C. during the day and 22-28° C. during the night. Nutrients and water were added on a regular basis and supplemental lighting was provided with overhead metal halide 1000 Watt lamps as necessary. The water was added by top-irrigation. After 3 weeks the condition of the test plants that germinated and grew as compared with that of the untreated plants that germinated and grew was determined visually and scored on a scale of 0 to 100 percent where 0 corresponds to no injury and 100 corresponds to complete kill or no germination.

[2] = tested on: chickweed (Stellaria media); assay: Postemergence herbicidal activity, chickweed; settings: 15.6 ppm, foliar spray, visual after 2 weeks; 0 no injury, 100 complete kill
Method: (§2) Seeds of the desired test plant species were planted in Grace-Sierra MetroMix® 306 planting mixture, which typically has a pH of 6.0 to 6.8 and an organic matter content of about 30 percent, in plastic pots with a surface area of 64 square centimeters. When required to ensure good germination and healthy plants, a fungicide treatment and/or other chemical or physical treatment was applied. The plants were grown for 7-21 days in a greenhouse with an approximately 15 hr photoperiod which was maintained at about 23-29° C. during the day and 22-28° C. during the night. Nutrients and water were added on a regular basis and supplemental lighting was provided with overhead metal halide 1000 Watt lamps as necessary. The plants were employed for testing when they reached the first or second true leaf stage. A weighed amount of each test compound, determined by the highest rate to be tested, was placed in a 20 mL glass vial and was dissolved in 4 mL of a 97:3 v/v (volume/volume) mixture of acetone and dimethyl sulfoxide to obtain concentrated stock solutions. […] The concentrated stock solutions obtained were diluted with an aqueous mixture containing acetone, water, iso-propyl alcohol, dimethyl sulfoxide, Atplus 411F crop oil concentrate, and Triton X-155 surfactant (methylenebisdiamyl phenoxy polyethoxy ethanol) in a 48.5:39:10:1.5:1.0:0.02 v/v ratio to obtain spray solutions of known concentration. The solutions containing the highest concentration to be tested were prepared by diluting 2 mL aliquots of the stock solution with 13 mL of the mixture and lower concentrations were prepared by dilution of appropriate smaller portions of the stock solution. Approximately 1.5 mL aliquots of each solution of known concentration were sprayed evenly onto each of the test plant pots using a DeVilbiss atomizer driven by compressed air pressure of 2 to 4 psi (140 to 280 kilopascals) to obtain thorough coverage of each plant. Control plants were sprayed in the same manner with the aqueous mixture. In this test an application rate of 1 ppm results in the application of approximately 1 g/ha. The treated plants and control plants were placed in a greenhouse as described above and watered by sub-irrigation to prevent wash-off of the test compounds. After 2 weeks the condition of the test plants as compared with that of the untreated plants was determined visually and scored on a scale of 0 to 100 percent where 0 corresponds to no injury and 100 corresponds to complete kill.

[3] = tested on: lambsquarters (Chenopodium album); assay: Postemergence herbicidal activity, lambsquarters; settings: 15.6 ppm, foliar spray, visual after 2 weeks; 0 no injury, 100 complete kill
Method: as §2

[4] = tested on: pigweed (Amaranthus retroflexus); assay: Postemergence herbicidal activity, pigweed; settings: 15.6 ppm, foliar spray, visual after 2 weeks; 0 no injury, 100 complete kill
Method: as §2

[5] = tested on: wild oats (Avena fatua); assay: Preemergence herbicidal activity, wild oats; settings: 35 g/Ha, soil spray, visual after 3 weeks; 0 no injury, 100 complete kill or no germination
Method: as §1

[6] = tested on: cocklebur (Xanthium strumarium); assay: Postemergence herbicidal activity, cocklebur; settings: 15.6 ppm, foliar spray, visual after 2 weeks; 0 no injury, 100 complete kill
Method: as §2

[7] = tested on: lambsquarters (Chenopodium album); assay: Preemergence herbicidal activity, lambsquarters; settings: 35 g/Ha, soil spray, visual after 3 weeks; 0 no injury, 100 complete kill or no germination
Method: as §1

[8] = tested on: blackgrass (Alopecurus myosuroides); assay: Postemergence herbicidal activity, blackgrass; settings: 15.6 ppm, foliar spray, visual after 2 weeks; 0 no injury, 100 complete kill
Method: as §2

[9] = tested on: wild oats (Avena fatua); assay: Postemergence herbicidal activity, wild oats; settings: 15.6 ppm, foliar spray, visual after 2 weeks; 0 no injury, 100 complete kill
Method: as §2

[10] = tested on: giant foxtail (Setaria faberi); assay: Preemergence herbicidal activity, giant foxtail; settings: 35 g/Ha, soil spray, visual after 3 weeks; 0 no injury, 100 complete kill or no germination
Method: as §1

[11] = tested on: blackgrass (Alopecurus myosuroides); assay: Preemergence herbicidal activity, blackgrass; settings: 35 g/Ha, soil spray, visual after 3 weeks; 0 no injury, 100 complete kill or no germination
Method: as §1

[12] = tested on: pigweed (Amaranthus retroflexus); assay: Preemergence herbicidal activity, pigweed; settings: 35 g/Ha, soil spray, visual after 3 weeks; 0 no injury, 100 complete kill or no germination
Method: as §1

[13] = tested on: morningglory (Ipomoea hederacea); assay: Preemergence herbicidal activity, morningglory; settings: 35 g/Ha, soil spray, visual after 3 weeks; 0 no injury, 100 complete kill or no germination
Method: as §1

[14] = tested on: viola (Viola tricolor); assay: Postemergence herbicidal activity, viola; settings: 15.6 ppm, foliar spray, visual after 2 weeks; 0 no injury, 100 complete kill
Method: as §2

[15] = tested on: crabgrass (Digitaria sanguinalis); assay: Preemergence herbicidal activity, crabgrass; settings: 35 g/Ha, soil spray, visual after 3 weeks; 0 no injury, 100 complete kill or no germination
Method: as §1

[16] = tested on: barnyardgrass (Echinochloa crus-galli); assay: Preemergence herbicidal activity, barnyardgrass; settings: 35 g/Ha, soil spray, visual after 3 weeks; 0 no injury, 100 complete kill or no germination
Method: as §1

[17] = tested on: velvetleaf (Abutilion theophrasti); assay: Postemergence herbicidal activity, velvetleaf; settings: 15.6 ppm, foliar spray, visual after 2 weeks; 0 no injury, 100 complete kill
Method: as §2

[18] = tested on: morningglory (Ipomoea hederacea); assay: Postemergence herbicidal activity, morningglory; settings: 15.6 ppm, foliar spray, visual after 2 weeks; 0 no injury, 100 complete kill
Method: as §2

[19] = tested on: giant foxtail (Setaria faberi); assay: Postemergence herbicidal activity, giant foxtail; settings: 15.6 ppm, foliar spray, visual after 2 weeks; 0 no injury, 100 complete kill
Method: as §2

[20] = tested on: wild buckwheat (Polygonum convolvulus); assay: Postemergence herbicidal activity, wild buckwheat; settings: 15.6 ppm, foliar spray, visual after 2 weeks; 0 no injury, 100 complete kill
Method: as §2

[21] = tested on: velvetleaf (Abutilion theophrasti); assay: Preemergence herbicidal activity, velvetleaf; settings: 35 g/Ha, soil spray, visual after 3 weeks; 0 no injury, 100 complete kill or no germination
Method: as §1

[22] = tested on: Rox orange sorghum (Sorghum bicolor); assay: Preemergence herbicidal activity, Rox orange sorghum; settings: 35 g/Ha, soil spray, visual after 3 weeks; 0 no injury, 100 complete kill or no germination
Method: as §1

[23] = tested on: cocklebur (Xanthium strumarium); assay: Preemergence herbicidal activity, cocklebur; settings: 35 g/Ha, soil spray, visual after 3 weeks; 0 no injury, 100 complete kill or no germination
Method: as §1

[24] = tested on: Rox orange sorghum (Sorghum bicolor); assay: Postemergence herbicidal activity, Rox orange sorghum; settings: 15.6 ppm, foliar spray, visual after 2 weeks; 0 no injury, 100 complete kill
Method: as §2

COc1cc(OC)n2nc(NS(=O)(=O)c3sc(Cl)cc3OC)nc2n1 [Compound 4]
EPHHL preemergence injury score 0-100 [1]: 40% | STEME postemergence injury score 0-100 [2]: 60% | CHEAL postemergence injury score 0-100 [3]: 90% | AMARE postemergence injury score 0-100 [4]: 100% | AVEFA preemergence injury score 0-100 [5]: 60% | XANST postemergence injury score 0-100 [6]: 60% | CHEAL preemergence injury score 0-100 [7]: 80% | ALOMY postemergence injury score 0-100 [8]: 70% | AVEFA postemergence injury score 0-100 [9]: 60% | SETFA preemergence injury score 0-100 [10]: 90% | ALOMY preemergence injury score 0-100 [11]: 95% | AMARE preemergence injury score 0-100 [12]: 100% | IPOHE preemergence injury score 0-100 [13]: 50% | VIOTR postemergence injury score 0-100 [14]: 60% | DIGSA preemergence injury score 0-100 [15]: 90% | ECHCG preemergence injury score 0-100 [16]: 0% | ABUTH postemergence injury score 0-100 [17]: 70% | IPOHE postemergence injury score 0-100 [18]: 60% | SETFA postemergence injury score 0-100 [19]: 85% | POLCO postemergence injury score 0-100 [20]: 90% | ABUTH preemergence injury score 0-100 [21]: 70% | SORBI preemergence injury score 0-100 [22]: 80% | XANST preemergence injury score 0-100 [23]: 0% | SORBI postemergence injury score 0-100 [24]: 70%

COc1cscc1S(=O)(=O)Nc1nc2c(OC)ccc(OC)n2n1 [Compound 16]
EPHHL preemergence injury score 0-100 [1]: 0% | STEME postemergence injury score 0-100 [2]: 90% | CHEAL postemergence injury score 0-100 [3]: 95% | AMARE postemergence injury score 0-100 [4]: 95% | AVEFA preemergence injury score 0-100 [5]: 0% | XANST postemergence injury score 0-100 [6]: 95% | CHEAL preemergence injury score 0-100 [7]: 80% | ALOMY postemergence injury score 0-100 [8]: 85% | AVEFA postemergence injury score 0-100 [9]: 80% | SETFA preemergence injury score 0-100 [10]: 0% | ALOMY preemergence injury score 0-100 [11]: 100% | AMARE preemergence injury score 0-100 [12]: 60% | IPOHE preemergence injury score 0-100 [13]: 0% | VIOTR postemergence injury score 0-100 [14]: 70% | DIGSA preemergence injury score 0-100 [15]: 30% | ECHCG preemergence injury score 0-100 [16]: 0% | ABUTH postemergence injury score 0-100 [17]: 80% | IPOHE postemergence injury score 0-100 [18]: 60% | SETFA postemergence injury score 0-100 [19]: 90% | POLCO postemergence injury score 0-100 [20]: 90% | ABUTH preemergence injury score 0-100 [21]: 40% | SORBI preemergence injury score 0-100 [22]: 0% | XANST preemergence injury score 0-100 [23]: 40% | SORBI postemergence injury score 0-100 [24]: 90%
